Data on one compound can be found in publication PMC5218480 (PLoS ONE, 2017).

The test concerns MV-4-11 cells. The test can be described thus: Gene expression microarray analysis (Affymetrix PrimeView) and GSEA. It is filed as cell-based, human. Details: RFU PODN (11730768_x_at) / Fold change /veh PODN (11730768_x_at) / RFU LINC00158 (11744669_a_at) / Fold change /veh LINC00158 (11744669_a_at) / RFU DUSP10 (11751237_a_at) / Fold change /veh DUSP10 (11751237_a_at) / RFU ID3 (11757404_x_at) / Fold change /veh ID3 (11757404_x_at) / RFU PLEKHG5 (11737974_s_at) / Fold change /veh PLEKHG5 (11737974_s_at) / RFU LRRC4B (11730491_at) / Fold change /veh LRRC4B (11730491_at) / RFU GIMAP4 (11747438_a_at) / Fold change /veh GIMAP4 (11747438_a_at) / RFU KRT8 (11758183_x_at) / Fold change /veh KRT8 (11758183_x_at) / RFU CNN1 (11734310_a_at) / Fold change /veh CNN1 (11734310_a_at) / RFU VPS37D (11726825_at) / Fold change /veh VPS37D (11726825_at) / RFU C10orf10 (11716522_x_at) / Fold change /veh C10orf10 (11716522_x_at) / RFU KIR2DL2 /// KIR2DL4 /// KIR2DL5A /// KIR2DL5B /// KIR2DS1 /// KIR2DS2 /// KIR2DS3 /// KIR2DS4 /// KIR3DL3 /// KIR3DL3 /// KIR3DS1 (11738374_at) / Fold change /veh KIR2DL2 /// KIR2DL4 /// KIR2DL5A /// KIR2DL5B /// KIR2DS1 /// KIR2DS2 /// KIR2DS3 /// KIR2DS4 /// KIR3DL3 /// KIR3DL3 /// KIR3DS1 (11738374_at) / RFU C1QL1 (11718748_at) / Fold change /veh C1QL1 (11718748_at) / RFU TMPRSS4 (11747572_a_at) / Fold change /veh TMPRSS4 (11747572_a_at) / RFU HAMP (11756126_x_at) / Fold change /veh HAMP (11756126_x_at) / RFU RNFT2 (11725882_a_at) / Fold change /veh RNFT2 (11725882_a_at) / RFU NR4A2 (11747474_a_at) / Fold change /veh NR4A2 (11747474_a_at) / RFU ABCC12 (11746883_a_at) / Fold change /veh ABCC12 (11746883_a_at) / RFU TMEM136 (11760407_x_at) / Fold change /veh TMEM136 (11760407_x_at) / RFU CLDN22 /// WWC2 (11732394_at) / Fold change /veh CLDN22 /// WWC2 (11732394_at) / RFU HLA-DPB1 (11760878_x_at) / Fold change /veh HLA-DPB1 (11760878_x_at) / RFU SPINT1 (11716480_a_at) / Fold change /veh SPINT1 (11716480_a_at) / RFU GAP43 (11754022_s_at) / Fold change /veh GAP43 (11754022_s_at) / RFU A4GNT (11735810_at) / Fold change /veh A4GNT (11735810_at) / RFU PRB3 (11715151_x_at) / Fold change /veh PRB3 (11715151_x_at) / RFU TUBB4B (11761932_at) / Fold change /veh TUBB4B (11761932_at) / RFU CAPN14 (11732068_a_at) / Fold change /veh CAPN14 (11732068_a_at) / RFU TMCC2 (11721928_a_at) / Fold change /veh TMCC2 (11721928_a_at) / RFU IRGQ (11745062_a_at) / Fold change /veh IRGQ (11745062_a_at) / RFU FAM174B (11720279_a_at) / Fold change /veh FAM174B (11720279_a_at) / RFU TMPRSS4 (11748680_a_at) / Fold change /veh TMPRSS4 (11748680_a_at) / RFU FAM212B (11763350_a_at) / Fold change /veh FAM212B (11763350_a_at) / RFU PLEKHG5 (11743358_a_at) / Fold change /veh PLEKHG5 (11743358_a_at) / RFU ZSCAN30 (11745921_a_at) / Fold change /veh ZSCAN30 (11745921_a_at) / RFU CMKLR1 (11741424_a_at) / Fold change /veh CMKLR1 (11741424_a_at) / RFU LOC101060620 /// MAPK8IP1 (11723275_at) / Fold change /veh LOC101060620 /// MAPK8IP1 (11723275_at) / RFU SPTSSB (11747773_x_at) / Fold change /veh SPTSSB (11747773_x_at) / RFU PRSS12 (11739890_at) / Fold change /veh PRSS12 (11739890_at) / RFU BIN1 (11741810_x_at) / Fold change /veh BIN1 (11741810_x_at) / RFU WNT11 (11732464_a_at) / Fold change /veh WNT11 (11732464_a_at) / RFU C10orf10 (11716521_a_at) / Fold change /veh C10orf10 (11716521_a_at) / RFU C5orf56 (11738089_at) / Fold change /veh C5orf56 (11738089_at) / RFU CYB561 (11721691_x_at) / Fold change /veh CYB561 (11721691_x_at) / RFU ANKRD19P (11752326_a_at) / Fold change /veh ANKRD19P (11752326_a_at) / RFU OR2T12 /// OR2T33 /// OR2T8 (11738714_s_at) / Fold change /veh OR2T12 /// OR2T33 /// OR2T8 (11738714_s_at) / RFU VCAN (11748164_a_at) / Fold change /veh VCAN (11748164_a_at) / RFU JSRP1 (11732532_at) / Fold change /veh JSRP1 (11732532_at) / RFU KRTAP10-11 (11738290_x_at) / Fold change /veh KRTAP10-11 (11738290_x_at) / RFU MYO3A (11730013_a_at) / Fold change /veh MYO3A (11730013_a_at) / RFU EBF3 (11725865_a_at) / Fold change /veh EBF3 (11725865_a_at) / RFU CAMK2N1 (11719241_x_at) / Fold change /veh CAMK2N1 (11719241_x_at) / RFU C5orf56 (11738088_a_at) / Fold change /veh C5orf56 (11738088_a_at) / RFU OLFML3 (11715873_a_at) / Fold change /veh OLFML3 (11715873_a_at) / RFU LOC100653217 /// NTM (11731650_a_at) / Fold change /veh LOC100653217 /// NTM (11731650_a_at) / RFU MAPK11 (11762145_a_at) / Fold change /veh MAPK11 (11762145_a_at) / RFU FIZ1 (11724087_x_at) / Fold change /veh FIZ1 (11724087_x_at) / RFU OASL (11726364_x_at) / Fold change /veh OASL (11726364_x_at) / RFU SOX15 (11748057_x_at) / Fold change /veh SOX15 (11748057_x_at) / RFU CD79A (11719716_a_at) / Fold change /veh CD79A (11719716_a_at) / RFU HIST1H1D (11736915_at) / Fold change /veh HIST1H1D (11736915_at) / RFU CASKIN2 (11723855_a_at) / Fold change /veh CASKIN2 (11723855_a_at) / RFU LOC730098 (11760151_x_at) / Fold change /veh LOC730098 (11760151_x_at) / RFU OR4N2 (11742367_at) / Fold change /veh OR4N2 (11742367_at) / RFU PRRT2 (11749266_a_at) / Fold change /veh PRRT2 (11749266_a_at) / RFU SNX32 (11753110_a_at) / Fold change /veh SNX32 (11753110_a_at) / RFU CDHR5 (11726645_a_at) / Fold change /veh CDHR5 (11726645_a_at) / RFU RCAN1 (11760418_a_at) / Fold change /veh RCAN1 (11760418_a_at) / RFU FAM167A (11723789_a_at) / Fold change /veh FAM167A (11723789_a_at) / RFU FAM26E (11764081_at) / Fold change /veh FAM26E (11764081_at) / RFU ISYNA1 (11749810_s_at) / Fold change /veh ISYNA1 (11749810_s_at) / RFU ACY1 (11761880_at) / Fold change /veh ACY1 (11761880_at) / RFU 11764098_at / Fold change /veh 11764098_at / RFU SAMD14 (11745864_x_at) / Fold change /veh SAMD14 (11745864_x_at) / RFU NPB (11741838_a_at) / Fold change /veh NPB (11741838_a_at) / RFU TMPRSS6 (11731388_a_at) / Fold change /veh TMPRSS6 (11731388_a_at) / RFU KRTAP10-2 (11738614_at) / Fold change /veh KRTAP10-2 (11738614_at) / RFU ARHGAP8 /// PRR5-ARHGAP8 (11727945_x_at) / Fold change /veh ARHGAP8 /// PRR5-ARHGAP8 (11727945_x_at) / RFU KRTAP5-7 /// NADSYN1 (11734609_at) / Fold change /veh KRTAP5-7 /// NADSYN1 (11734609_at) / RFU RASL12 (11751679_a_at) / Fold change /veh RASL12 (11751679_a_at) / RFU CDKN2B (11736163_a_at) / Fold change /veh CDKN2B (11736163_a_at) / RFU PRF1 (11729649_at) / Fold change /veh PRF1 (11729649_at) / RFU, ZNF638 /// ZNF638-IT1 / Fold change vs veh, ZNF638 /// ZNF638-IT1 / RFU, PANK3 / Fold change vs veh, PANK3 / RFU, SH3YL1 / Fold change vs veh, SH3YL1 / RFU, ZEB2 / Fold change vs veh, ZEB2 / RFU, NRIP1 / Fold change vs veh, NRIP1 / RFU, PTTG1IP / Fold change vs veh, PTTG1IP / RFU, CAPN2 / Fold change vs veh, CAPN2 / RFU, MED14 / Fold change vs veh, MED14 / RFU, SNORA58 / Fold change vs veh, SNORA58 / RFU, C1orf63 / Fold change vs veh, C1orf63 / RFU, LRRFIP1 / Fold change vs veh, LRRFIP1 / RFU, NDUFAF7 / Fold change vs veh, NDUFAF7 / RFU, SLC12A2 / Fold change vs veh, SLC12A2 / RFU, IBTK / Fold change vs veh, IBTK / RFU, ESF1 / Fold change vs veh, ESF1 / Fold change vs veh, TMEM50B / RFU, TAOK1 / Fold change vs veh, TAOK1 / RFU, ACBD3 / Fold change vs veh, ACBD3 / RFU, TMA16 / Fold change vs veh, TMA16 / RFU, RWDD3 / Fold change vs veh, RWDD3 / RFU, BCAT1 / Fold change vs veh, BCAT1 / RFU, EDEM3 / Fold change vs veh, EDEM3 / RFU, TMEM33 / Fold change vs veh, TMEM33 / RFU, WDR75 / Fold change vs veh, WDR75 / RFU, AHCTF1 / Fold change vs veh, AHCTF1 / RFU, TFRC / Fold change vs veh, TFRC / RFU, ZDHHC17 / Fold change vs veh, ZDHHC17 / RFU, NOM1 / Fold change vs veh, NOM1 / RFU, ARL8B / Fold change vs veh, ARL8B / RFU, ZBTB11 / Fold change vs veh, ZBTB11 / RFU, TAMM41 / Fold change vs veh, TAMM41 / RFU, KIAA1704 /// LOC100996395 / Fold change vs veh, KIAA1704 /// LOC100996395 / RFU, ING1 / Fold change vs veh, ING1 / RFU, TRMT61B / Fold change vs veh, TRMT61B / RFU, FUBP3 / Fold change vs veh, FUBP3 / RFU, TP53 / Fold change vs veh, TP53 / RFU, TNKS2 / Fold change vs veh, TNKS2 / RFU, ZFP14 / Fold change vs veh, ZFP14 / RFU, ACTR2 / Fold change vs veh, ACTR2 / RFU, PPP3R1 / Fold change vs veh, PPP3R1 / RFU, PIK3R1 / Fold change vs veh, PIK3R1 / RFU, HNRNPA1 / Fold change vs veh, HNRNPA1 / RFU, RNF170 / Fold change vs veh, RNF170 / RFU, ZNF28 / Fold change vs veh, ZNF28 / RFU, RNGTT / Fold change vs veh, RNGTT / RFU, OGT / Fold change vs veh, OGT / RFU, BRD1 / Fold change vs veh, BRD1 / RFU, MARS / Fold change vs veh, MARS / RFU, ZNF655 / Fold change vs veh, ZNF655 / RFU, FAHD1 / Fold change vs veh, FAHD1 / RFU, BDP1 / Fold change vs veh, BDP1 / RFU, LRRCC1 / Fold change vs veh, LRRCC1 / RFU, ARID1A / Fold change vs veh, ARID1A / RFU, ZNF146 / Fold change vs veh, ZNF146 / RFU, ZNF330 / Fold change vs veh, ZNF330 / RFU, GPN3 / Fold change vs veh, GPN3 / RFU, C9orf123 / Fold change vs veh, C9orf123 / RFU, N4BP2L2 / Fold change vs veh, N4BP2L2 / RFU, ARFIP1 / Fold change vs veh, ARFIP1 / RFU, FAM179B / Fold change vs veh, FAM179B / RFU, BCL10 / Fold change vs veh, BCL10 / RFU, UHRF1BP1L / Fold change vs veh, UHRF1BP1L / RFU, BET1 / Fold change vs veh, BET1 / RFU, CNOT2 / Fold change vs veh, CNOT2 / RFU, ZNF268 / Fold change vs veh, ZNF268 / Fold change vs veh, ZNF507 / RFU, DGCR2 / Fold change vs veh, DGCR2 / RFU, WDSUB1 / Fold change vs veh, WDSUB1 / Fold change vs veh, HSP90B1 /// MIR3652 / RFU, ADSS / Fold change vs veh, ADSS / RFU, GK / Fold change vs veh, GK / RFU, ZNF148 / Fold change vs veh, ZNF148 / RFU, TAF9 / Fold change vs veh, TAF9 / RFU, SLC1A5 / Fold change vs veh, SLC1A5 / RFU, SLMO2 / Fold change vs veh, SLMO2 / RFU, ABCC4 / Fold change vs veh, ABCC4 / RFU, LOC101060439 /// RAP1B / Fold change vs veh, LOC101060439 /// RAP1B / RFU, RFX7 / Fold change vs veh, RFX7 / RFU, GTPBP10 / Fold change vs veh, GTPBP10 / RFU, CNEP1R1 / Fold change vs veh, CNEP1R1 / RFU, BIVM-ERCC5 /// ERCC5 / Fold change vs veh, BIVM-ERCC5 /// ERCC5 / RFU, ILF3 / Fold change vs veh, ILF3 / RFU 11762660_at / Fold change /veh 11762660_at / RFU VCAN (11757783_s_at) / Fold change /veh VCAN (11757783_s_at) / RFU DDX43 (11728927_at) / Fold change /veh DDX43 (11728927_at) / RFU KRT8 (11758188_x_at) / Fold change /veh KRT8 (11758188_x_at) / RFU NKD1 (11759106_at) / Fold change /veh NKD1 (11759106_at) / RFU SRD5A1 (11742802_a_at) / Fold change /veh SRD5A1 (11742802_a_at) / RFU TPSAB1 /// TPSB2 (11721975_s_at) / Fold change /veh TPSAB1 /// TPSB2 (11721975_s_at) / RFU GSTM3 (11746129_a_at) / Fold change /veh GSTM3 (11746129_a_at) / RFU IL23R (11737362_x_at) / Fold change /veh IL23R (11737362_x_at) / RFU TMEM51 (11727254_a_at) / Fold change /veh TMEM51 (11727254_a_at) / RFU PIWIL2 (11732686_x_at) / Fold change /veh PIWIL2 (11732686_x_at) / RFU ORM1 (11744905_x_at) / Fold change /veh ORM1 (11744905_x_at) / RFU CCDC152 (11743942_at) / Fold change /veh CCDC152 (11743942_at) / RFU ECM1 (11717891_a_at) / Fold change /veh ECM1 (11717891_a_at) / RFU IL23R (11748794_a_at) / Fold change /veh IL23R (11748794_a_at) / RFU TNFAIP8L3 (11732012_x_at) / Fold change /veh TNFAIP8L3 (11732012_x_at) / RFU MBOAT4 (11741988_at) / Fold change /veh MBOAT4 (11741988_at) / RFU 11764193_at / Fold change /veh 11764193_at / RFU TMEM53 (11763286_at) / Fold change /veh TMEM53 (11763286_at) / RFU MAGEB2 (11727129_at) / Fold change /veh MAGEB2 (11727129_at) / RFU TMEM200A (11744735_a_at) / Fold change /veh TMEM200A (11744735_a_at) / RFU CCDC152 (11751479_a_at) / Fold change /veh CCDC152 (11751479_a_at) / RFU FAM211A (11726209_a_at) / Fold change /veh FAM211A (11726209_a_at) / RFU RGS16 (11746705_a_at) / Fold change /veh RGS16 (11746705_a_at) / RFU VCAN (11755009_s_at) / Fold change /veh VCAN (11755009_s_at) / RFU RHOB (11743442_s_at) / Fold change /veh RHOB (11743442_s_at) / RFU RGS16 (11720943_a_at) / Fold change /veh RGS16 (11720943_a_at) / RFU RGS16 (11720944_at) / Fold change /veh RGS16 (11720944_at) / RFU, VPS4B / Fold change vs veh, VPS4B / RFU, CREB1 / Fold change vs veh, CREB1 / RFU, DNAJC13 / Fold change vs veh, DNAJC13 / RFU, GNAQ / Fold change vs veh, GNAQ / RFU, CDK5R1 / Fold change vs veh, CDK5R1 / RFU, ZRANB3 / Fold change vs veh, ZRANB3 / RFU, CUL4A / Fold change vs veh, CUL4A / RFU, CCNY / Fold change vs veh, CCNY / RFU, UFL1 / Fold change vs veh, UFL1 / RFU, COG3 / Fold change vs veh, COG3 / RFU, DIAPH2 / Fold change vs veh, DIAPH2 / RFU, SKA2 / Fold change vs veh, SKA2 / RFU, AFF3 / Fold change vs veh, AFF3 / RFU, LMF1 / Fold change vs veh, LMF1 / RFU, IPO11 / Fold change vs veh, IPO11 / RFU, DFFB / Fold change vs veh, DFFB / RFU, FOXP1 / Fold change vs veh, FOXP1 / RFU, CARD8 / Fold change vs veh, CARD8 / RFU, STRN3 / Fold change vs veh, STRN3 / RFU, ADK / Fold change vs veh, ADK / RFU, RASSF2 / Fold change vs veh, RASSF2 / RFU, WIPF1 / Fold change vs veh, WIPF1 / RFU, LARP1B / Fold change vs veh, LARP1B / RFU, RASA1 / Fold change vs veh, RASA1 / RFU, RB1 / Fold change vs veh, RB1 / RFU, PPFIA1 / Fold change vs veh, PPFIA1 / RFU, MAT2A / Fold change vs veh, MAT2A / RFU, CCT5 / Fold change vs veh, CCT5 / RFU, WDR92 / Fold change vs veh, WDR92 / RFU, CUX1 / Fold change vs veh, CUX1 / RFU, TTC7A / Fold change vs veh, TTC7A / RFU, TMEM135 / Fold change vs veh, TMEM135 / RFU, DEPTOR / Fold change vs veh, DEPTOR / RFU, CPM / Fold change vs veh, CPM / RFU, DNAJB6 / Fold change vs veh, DNAJB6 / RFU, CACNA2D3 / Fold change vs veh, CACNA2D3 / RFU, DTX4 / Fold change vs veh, DTX4 / RFU, TFCP2 / Fold change vs veh, TFCP2 / RFU, GMCL1 /// GMCL1P1 / Fold change vs veh, GMCL1 /// GMCL1P1 / RFU, AEBP2 / Fold change vs veh, AEBP2 / RFU, SNHG1 /// SNORD22 /// SNORD25 /// SNORD26 /// SNORD27 /// SNORD28 /// SNORD29 /// SNORD31 / Fold change vs veh, SNHG1 /// SNORD22 /// SNORD25 /// SNORD26 /// SNORD27 /// SNORD28 /// SNORD29 /// SNORD31 / Fold change (Aza/veh), C12orf56 (ProbeSet 11735607_a_at) / Fold change (ACY-1035/veh), C12orf56 (ProbeSet 11735607_a_at) / Fold change (Aza/veh), FGFR1OP (ProbeSet 11751329_s_at) / Fold change (ACY-1035/veh), FGFR1OP (ProbeSet 11751329_s_at) / Fold change (Aza/veh), VPS36 (ProbeSet 11739960_a_at) / Fold change (ACY-1035/veh), VPS36 (ProbeSet 11739960_a_at) / RFU SYPL1 (11715823_x_at) / Fold change /veh SYPL1 (11715823_x_at) / RFU IGFBP7 (11715501_s_at) / Fold change /veh IGFBP7 (11715501_s_at) / RFU REEP3 (11722064_at) / Fold change /veh REEP3 (11722064_at) / RFU IGLL1 (11728026_x_at) / Fold change /veh IGLL1 (11728026_x_at): dose or concentration left out as unconfirmed. Conditions: MV-4-11 cells, 48 hours.

Take `Nc1ncn([C@@H]2O[C@H](CO)[C@@H](O)[C@H]2O)c(=O)n1` [azacitidine]: the “RFU SNX32 (11753110_a_at)” value came to 6.16 RFU.
